Patent US8653115B2, “Heterocyclic non-nucleoside compounds, their preparation, pharmaceutical composition and their use as antiviral agents” (Shanghai Institute of Materia Medica, Chinese Academy of …, priority 2006, dated 2014)

Experiments:
[1] = Cytotoxicity to HepG2.2.15 cells, MTT method; type: cell-based; conditions: human, HepG2.2.15 cells (HBV-transgenic human hepatoma cell line), day 8, 50% death concentration
Method: (§1) Hepatitis B virus (HBV) transgenic human hepatoma carcinoma cell, HepG2.2.15 cell line, can secrete hepatitis B virus particles (containing antigen and DNA) into the supernatant when being incubated.
(§2) Under the influence of antiviral drugs, the contents of HBsAg, HBeAg and viral DNA secreted from cells into the supernatant were detected. Compared with the contents of control groups without drugs, the antiviral activity of the sample drugs can be observed. Meanwhile, the cytotoxic effect of the sample drugs can be detected. The value concentration of the sample drugs which caused 50% of the cells dead measured with MTT method was CC50. And the value concentration of the sample drugs which inhibited 50% of the secretion of HBsAg and HBeAg detected by specific ELISA kits and inhibited 50% of the viral DNA replication detected by fluorescent quantitation PCR method was IC50.
(§3) HepG2.2.15 cells were inoculated into a 96-well plate, and the sample drugs were added next day. The medium and the sample drugs with the same concentration were renewed periodically, and the supernatants were collected on the eighth day to be detected. MTT was added to the cells in the 96-well plate, and MTT dissolving solution was added after 4 hours and reacted overnight. OD570 was measured on ELISA the next day. The cytotoxicity of the sample drugs to HepG2.2.15 cells, the effect of the sample drugs on the growth of the cells, and the concentration of the sample drugs (CC50) resulting in 50% of the cells dead were estimated according to the OD values.

[2] = tested on: Hepatitis B virus (HBV) DNA; assay: HBV-DNA replication in HepG2.2.15 supernatant, fluorescent quantification PCR; type: cell-based; conditions: for IC50: Hepatitis B virus, 192 h, HepG2.2.15 supernatant, day 8, PCR, NA means no obvious biological activity or unable to be calculated
Method: as §1, §2, §3
A suitable amount of supernatant was added to the same volume of virus extract solution, and was boiled after mixed homogenously, then centrifuged at 10000 rpm under room temperature for 5 minutes, and a suitable amount of supernatant was collected for PCR amplification. Meanwhile five HBV-DNA standard samples were set to establish a standard curve. According to the obtained viral DNA replication value, the inhibition ratios of HBV-DNA replication of each sample drug at different concentrations were calculated, and then the half inhibition rates of the sample drugs were calculated to obtain IC50. For those samples that can not be calculated for IC50 values, they can be represented by ICx and list the corresponding concentration values.

[3] = tested on: Duck hepatitis B virus (DHBV); assay: Anti hepatitis B virus activity on animal: DHBV-DNA level in serum of infected ducks, dot blot hybridization; type: in vivo, Beijing duck; conditions: 50 mg/kg oral (intragastric) twice per day for 10 days; for inhibitory effect to DHBV-DNA in duck serum, group analysis (versus virus control group) / inhibitory effect to DHBV-DNA in duck serum, paired analysis (versus T0 of same group): T5, T10, P3
Method: The solutions of the sample drugs having required concentration (100 mg/mL) were prepared by using 0.3% sodium carboxymethyl cellulose. Batch number: 00701010
Strong positive serum of Duck hepatitis B virus DNA (DHBV-DNA), collected from Shanghai brown-duck, was store at −70[…].
1-day-old Beijing duck, purchased from Beijing QianJin breeding duck farm.
1-day-old Beijing duck was injected DHBV-DNA positive serum of Shanghai brown-duck via vena cruralis with 0.2 ml/each duck. Blood was taken on the seventh day after infected; serum was separated and stored at −70[…] to be detected.
DHBV infected ducklings were randomly grouped (six ducklings/each group) to carry out drug treatment experiment after 7 days. The administration groups (W28D, W28F, W28M, C37) were set 1 dose group—50 mg/kg respectively, and oral (intragastric) administered twice per day for 10 days (Bid×10). The drugs were replaced with normal saline in virus control group (DHBV). […] Blood was taken from the vena cruralis of the duck after 7 days later of infection, i.e. before drug administration (T0), the fifth day (T5) and the tenth day after drug administration (T10), and the third day after drug withdrawal (P3), then serum was separated and stored at −70[…] to be detected.
The above duck serum was taken and dotted on the membrane to measure the dynamic level of DHBV-DNA in the duck serum. According to the instruction of nick translation kit, dot blot hybridization of duck serum and was carried out using ^32 P labeled DHBV-DNA probe (purchased from Promega Co.). And the dots were shown on the membrane by radioautography. The OD values (the filter was 490 nm) of the dots on the membrane were measured by ELISA. DHBV-DNA density of the serum was calculated and the OD values of the hybridized dot were used as the values of DHBV-DNA level.
a) The mean values (X±SD) of DHBV-DNA OD values of serum at different time of the ducks in each group were calculated, and the DNA levels of serum at different time after drug administration (T5, T10) and the third day after drug withdrawal (P3) for the ducks in each group and were compared with the OD values before administration (T0) of the same group. The values of t1 and P1 were calculated by paired-t test. The significance of the difference was analyzed, and the inhibitory effect of the drugs on the viral infection was estimated.
b). The inhibition ratio (%) to DHBV-DNA of serum at different time after administration (T5, T10) and the third day after drug withdrawal (P3) of the ducks in each group were calculated and illuminated in the figure, and the dynamic state of the inhibition ratios of DHBV-DNA in duck serum in each group were compared.
c) The inhibitions % of DHBV-DNA at different time of the administration group were compared with that at the same time of the virus control group. […] The significance of the difference was analyzed, and the drug action was estimated.

Row | Structure (SMILES) | CC50 at 8 day [1] | IC50 [2] | other results
1 | CCOC(=O)c1nc(-c2cccc(F)c2)sc1CC(C)C [C307-3] | > 33.3 µM | < 0.05 µM | –
2 | CCOC(=O)c1nc(-c2ncc(Br)s2)sc1CC(C)C [C375] | > 33.3 µM | > 33.3 µM | –
3 | CCOC(=O)c1nc(-c2cccc([N+](=O)[O-])c2OC)sc1CC(C)C [C364-1] | 19.2 µM | 1.1 µM | –
4 | COc1ccc(-c2nc(C(=O)OC(C)C)c(CC(C)C)s2)cc1 [C37] | > 33 µM | 0.03 µM | inhibitory effect to DHBV-DNA in duck serum, group analysis (versus virus control group) [3]: at each time point did not show inhibitory effect to DHBV-DNA; inhibitory effect to DHBV-DNA in duck serum, paired analysis (versus T0 of same group) [3]: at each time point did not show inhibitory effect to DHBV-DNA
5 | CC(C)Cc1sc(-c2nccs2)nc1C(=O)OC(C)(C)C [C324-6] | > 33.3 µM | 3.7 µM | –
6 | CC(C)Cc1sc(-c2nccs2)nc1C(=O)N(C)C [C295-3] | > 100 µM | – | DNA replication ICX: IC12 ([2]; concentration at 12% inhibition, IC50 not calculable): IC12 = 1.23 μM
7 | CCOC(=O)c1nc(-c2ccc(OC)cc2)sc1CC(C)C [C319-3] | > 33.3 µM | 0.09 µM | –
8 | CCOC(=O)c1nc(-c2ccc([N+](=O)[O-])cc2)sc1CC(C)C [C334-2] | > 33.3 µM | 1.06 µM | –
9 | CC(=O)c1nc(-c2nccs2)sc1CC(C)C [C266] | > 33.3 µM | 0.06 µM | –
10 | CC(C)Cc1sc(-c2nccs2)nc1C(N)=O [C267] | > 100 µM | – | DNA replication ICX: IC89 ([2]; concentration at 89% inhibition, IC50 not calculable): IC89 = 33 μM
11 | CC(C)Cc1sc(-c2nccs2)nc1C(=O)Nc1ccccc1 [C343] | 50 µM | – | DNA replication ICX: IC19 ([2]; concentration at 19% inhibition, IC50 not calculable): IC19 = 1.23 μM
12 | CCOC(=O)c1nc(-c2ccc(O)cc2)sc1CC(C)C [C305-4] | > 33.3 µM | – | –
13 | CCOC(=O)c1nc(-c2ccc3ccccc3n2)[nH]c1CC(C)C [C323-2] | > 100 µM | – | –
14 | CC(C)Cc1sc(-c2nccs2)nc1C(=O)OC(C)C [C310-4] | > 100 µM | 0.81 µM | inhibitory effect to DHBV-DNA in duck serum, group analysis (versus virus control group) [3]: T10 showed inhibitory effect to DHBV-DNA with statistical significance; inhibitory effect to DHBV-DNA in duck serum, paired analysis (versus T0 of same group) [3]: T10 showed inhibitory effect to DHBV-DNA with statistical significance
15 | O=C(O)c1nc(-c2nccs2)sc1Cc1ccccc1 [Wang302] | 192 µM | 63.1 µM | –
16 | CCOC(=O)CCc1nc(-c2nccs2)sc1CC(C)C [C324-5] | > 33.3 µM | 3 µM | –
17 | CCOC(=O)c1nc(-c2cccc(Cl)c2)sc1CC(C)C [C323-3] | > 33.3 µM | – | –
18 | CCOC(=O)c1nc(-c2ccccn2)sc1CC(C)C [C290] | > 100 µM | 0.14 µM | –
19 | COC(=O)c1nc(-c2nccs2)sc1CC(C)C [W28] | > 333 µM | 2.4 µM | –
20 | CCOC(=O)c1nc(-c2ccc(NC(=O)OC(C)(C)C)cc2)sc1CC(C)C [C404] | > 33.3 µM | – | –
21 | CCOC(=O)c1nc(-c2ccncc2)sc1CC(C)C [C290-3] | > 100 µM | – | –
22 | CCOC(=O)c1nc(-c2ncc(-c3ccccc3)s2)sc1CC(C)C [C358] | > 33.3 µM | – | DNA replication ICX: IC36 ([2]; concentration at 36% inhibition, IC50 not calculable): IC36 = 1.23 μM
23 | CC(C)Cc1sc(-c2nccs2)nc1C(=O)NCc1ccc(F)cc1 [W28F] | 43 µM | 0.78 µM | DHBV-DNA rebound 3 days after drug withdrawal (P3) ([3]; then P3): rebounded, it did not reach the original level; inhibitory effect to DHBV-DNA in duck serum, group analysis (versus virus control group) [3]: T5 and T10 showed inhibitory effect to DHBV-DNA with statistical significance; inhibitory effect to DHBV-DNA in duck serum, paired analysis (versus T0 of same group) [3]: T5 and T10 showed inhibitory effect to DHBV-DNA with statistical significance

Row | Structure (SMILES) | CC50 at 8 day [1] | IC50 [2] | other results
24 | CCOC(=O)c1nc(-c2ncccc2O)sc1CC(C)C [C306-3] | 5.67 µM | 0.14 µM | –
25 | CCOC(=O)C=Cc1nc(-c2nccs2)sc1CC(C)C [C322-2] | > 33.3 µM | 0.06 µM | –
26 | CCOC(=O)c1nc(-c2ccccc2C)sc1CC(C)C [C303-3] | > 33.3 µM | 1.48 µM | –
27 | CCOC(=O)c1nc(-c2cccc(C)c2)sc1CC(C)C [C303-2] | > 33.3 µM | > 33.3 µM | –
28 | CCOC(=O)c1nc(-c2cccc([N+](=O)[O-])c2)sc1CC(C)C [C334-3] | > 33.3 µM | 1.2 µM | –
29 | Cc1cnc(-c2nc(C(=O)OC(C)C)c(CC(C)C)s2)s1 [W28M] | > 20 µM | < 0.08 µM | inhibitory effect to DHBV-DNA in duck serum, group analysis (versus virus control group) [3]: did not show any effect with statistical significance; inhibitory effect to DHBV-DNA in duck serum, paired analysis (versus T0 of same group) [3]: T10 and P3 showed inhibitory effect to DHBV-DNA with statistical significance
30 | CCOC(=O)c1nc(-c2ccc3ccccc3n2)oc1CC(C)C [C324-4] | 45.4 µM | 11.9 µM | –
31 | CCOC(=O)c1nc(-c2cccc(OC)c2)sc1CC(C)C [C319-4] | > 33.3 µM | 0.11 µM | –
32 | CCOC(=O)c1nc(-c2ccccc2OC)sc1CC(C)C [C319-5] | > 33.3 µM | 0.04 µM | –
33 | CCOC(=O)c1nc(-c2ccccc2F)sc1CC(C)C [C307-4] | > 33.3 µM | 0.14 µM | –
34 | CCOC(=O)c1nc(-c2ccc(F)cc2)sc1CC(C)C [C307-2] | > 33.3 µM | – | –
35 | CNC(=O)c1nc(-c2nccs2)sc1CC(C)C [C281] | > 100 µM | – | DNA replication ICX: IC94 ([2]; concentration at 94% inhibition, IC50 not calculable): IC94 = 33 μM
36 | CC(C)Cc1sc(-c2nccs2)nc1CO [C254] | > 33.3 µM | > 33.3 µM | –
37 | CCC(=O)c1nc(-c2nccs2)sc1CC(C)C [C280-4] | > 33.3 µM | 0.09 µM | –
38 | CCOC(=O)c1nc(-c2ccc(C)cc2)sc1CC(C)C [C303-1] | > 33.3 µM | 2.9 µM | –
39 | CCOC(=O)c1nc(-c2cccc(O)n2)sc1CC(C)C [C306-2] | > 100 µM | 0.14 µM | –
40 | CCC(O)c1nc(-c2nccs2)sc1CC(C)C (stereo not drawn) [C282-2] | > 33.3 µM | 0.8 µM | –
41 | CCOC(=O)c1nc(-c2ccc([N+](=O)[O-])c(OC)c2)sc1CC(C)C [C364-2] | > 33.3 µM | – | –
42 | CCOC(=O)c1nc(-c2ccccn2)oc1CC(C)C [C274] | > 100 µM | 67.6 µM | –
43 | CCOC(=O)c1nc(-c2ccccc2[N+](=O)[O-])sc1CC(C)C [C334-4] | > 33.3 µM | 1.24 µM | –
44 | CC(C)Cc1sc(-c2nccs2)nc1C(C)O (stereo not drawn) [C268-2] | > 33.3 µM | 0.6 µM | –
45 | CCCCc1sc(-c2nccs2)nc1C(=O)O [Wang268] | 257 µM | – | DNA replication ICX: IC53 ([2]; concentration at 53% inhibition, IC50 not calculable): IC53 = 125 μM
46 | CCOC(=O)c1nc(-c2cccnc2)sc1CC(C)C [C290-2] | > 100 µM | – | –
